“And” between values parts separate entries of the source, which are not always exact repeats. Equal entries are not always repeated.
Assays:
Assay type in all cases: toxicity, cell-based
Fibroblast = assay: Incucyte cell viability with human fibroblast; settings: 10 µM, compound concentration 10 uM
HEK-293T = assay: Incucyte cell viability with HEK293T; settings: human, 10 µM, compound concentration 10 uM
U2OS = assay: Incucyte cell viability with U2OS; settings: human, 10 µM, compound concentration 10 uM
Also: unitless GR value; below 1 slowed growth and below 0 cell loss.

| Structure (SMILES) | Growth Rate (Fibroblast; 6 h, replicate number 1) | Growth Rate (Fibroblast; 6 h, replicate number 2) | Growth Rate (Fibroblast; 12 h, replicate number 2) | Growth Rate (Fibroblast; 18 h, replicate number 1) | Growth Rate (Fibroblast; 18 h, replicate number 2) | Growth Rate (Fibroblast; 24 h, replicate number 1) | Growth Rate (Fibroblast; 24 h, replicate number 2) | Growth Rate (HEK-293T; 0 h, replicate number 2) | Growth Rate (HEK-293T; 6 h, replicate number 2) | Growth Rate (HEK-293T; 18 h, replicate number 1) | Growth Rate (HEK-293T; 24 h, replicate number 1) | Growth Rate (HEK-293T; 24 h, replicate number 2) | Growth Rate (U2OS; 0 h, replicate number 1) | Growth Rate (U2OS; 0 h, replicate number 2) | Growth Rate (U2OS; 6 h, replicate number 1) | Growth Rate (U2OS; 12 h, replicate number 1) | Growth Rate (U2OS; 18 h, replicate number 1) | Growth Rate (U2OS; 18 h, replicate number 2) | Growth Rate (U2OS; 24 h, replicate number 1) | Growth Rate (U2OS; 24 h, replicate number 2) | other results |
| --- | --- | --- | --- | --- | --- | --- | --- | --- | --- | --- | --- | --- | --- | --- | --- | --- | --- | --- | --- | --- | --- |
| COc1cc2c(NC3CCN(C(C)C)CC3)nc(C3CCCCC3)nc2cc1OCCCN1CCCC1 | -0.16 | -0.65 | -0.48 | -0.27 | -0.46 | -0.35 | -0.46 | -1 | -0.51 | -0.39 | -0.26 | -0.39 | -0.98 | 0.19 | 0.4 | 0.2 | 0.05 | -0.16 | -0.01 | -0.23 | Growth Rate (Fibroblast; 12 h, replicate number 1): -0.07; Growth Rate (HEK-293T; 6 h, replicate number 1): -0.49; Growth Rate (HEK-293T; 12 h, replicate number 1): -0.43; Growth Rate (HEK-293T; 12 h, replicate number 2): -0.45; Growth Rate (HEK-293T; 18 h, replicate number 2): -0.38; Growth Rate (U2OS; 6 h, replicate number 2): 0.03; Growth Rate (U2OS; 12 h, replicate number 2): -0.13 |
| CC(N)C1CCC(C(=O)Nc2ccncc2)CC1 (stereo unspecified) |  |  |  | -0.47 |  | 0.52 |  | 0.58 |  |  |  |  | 0.26 | -0.73 |  |  |  |  |  |  | Growth Rate (Fibroblast; 0 h, replicate number 1): -0.76; Growth Rate (HEK-293T; 0 h, replicate number 1): -0.35 |
| c1cc(-c2cnn3cc(-c4ccc(N5CCNCC5)cc4)cnc23)c2cccnc2c1 | -0.19 | -1 | -0.91 | -0.44 | -0.74 | 0.25 | -0.55 | 0.43 | -0.96 | -0.44 | -0.34 | -0.45 | -0.73 |  | -0.87 | -0.69 | -0.57 | -0.48 | -0.49 | -0.43 | Growth Rate (Fibroblast; 0 h, replicate number 2): -0.9; Growth Rate (Fibroblast; 12 h, replicate number 1): -1; Growth Rate (HEK-293T; 0 h, replicate number 1): -0.92; Growth Rate (HEK-293T; 6 h, replicate number 1): -0.69; Growth Rate (HEK-293T; 12 h, replicate number 1): -0.55; Growth Rate (HEK-293T; 12 h, replicate number 2): -0.77; Growth Rate (HEK-293T; 18 h, replicate number 2): -0.58; Growth Rate (U2OS; 6 h, replicate number 2): -0.62; Growth Rate (U2OS; 12 h, replicate number 2): -0.61 |
| COc1cc(OC)cc(-c2cc3cnc(N)nc3nc2NC(=O)NC(C)(C)C)c1 | -0.05 | 0.11 |  |  | 0.45 |  | 0.45 | -0.38 |  | 0.71 | 0.65 and 0.98 | 0.38 and 0.68 |  | 0.36 and 0.2 | 0.92 | 0.8 | 0.67 and 0.9 |  | 0.91 |  | Growth Rate (Fibroblast; 0 h, replicate number 2): 0.79; Growth Rate (HEK-293T; 6 h, replicate number 1): 0.92; Growth Rate (HEK-293T; 12 h, replicate number 1): 0.8; Growth Rate (HEK-293T; 18 h, replicate number 2): 0.36 and 0.62 |
| Cc1cn(CCN2CCN(c3ccccc3-c3cc(C#N)cc(C(=O)NCCCN4CCCC4)c3)CC2)c2ccccc12 | -0.88 | -0.91 | -0.87 | -0.68 | -0.81 | -0.66 | -0.71 | -1 | -0.59 | -0.45 | -0.38 | -0.39 | -1 | -0.98 | -0.93 | -0.85 | -0.75 | -0.77 | -0.72 | -0.74 | Growth Rate (Fibroblast; 12 h, replicate number 1): -0.74; Growth Rate (HEK-293T; 6 h, replicate number 1): -0.62; Growth Rate (HEK-293T; 12 h, replicate number 1): -0.46; Growth Rate (HEK-293T; 12 h, replicate number 2): -0.49; Growth Rate (HEK-293T; 18 h, replicate number 2): -0.47; Growth Rate (U2OS; 6 h, replicate number 2): -0.89; Growth Rate (U2OS; 12 h, replicate number 2): -0.84 |
| CCN(C(=O)CO)[C@H]1CN(/C(=N\C#N)Nc2cccc(OC(F)F)c2)N=C1c1ccc(Cl)c(Cl)c1 |  | 0.31 | 0.8 |  |  |  | 0.98 | -0.6 | 0.79 | 0.96 | 0.91 |  |  |  | 1 |  | -0.52 |  | -0.49 |  | Growth Rate (Fibroblast; 0 h, replicate number 2): 0.47 |
| Cc1ccc(S(=O)(=O)O)cc1.Cn1cc(-c2ccc(F)c(C(F)(F)F)c2)nc1C1CCN(c2ncnc3[nH]ncc23)CC1 | -1 |  |  |  |  |  |  | -0.63 |  |  |  | 0.9 | 0.87 | -1 |  |  |  |  |  |  | Growth Rate (Fibroblast; 0 h, replicate number 1): 0.54; Growth Rate (Fibroblast; 0 h, replicate number 2): -0.97; Growth Rate (HEK-293T; 0 h, replicate number 1): 0.72 |
| O=C1N=C(NCc2cccs2)S/C1=C\c1ccc2ncccc2c1 | 0.04 |  |  |  |  |  |  | -0.64 |  |  |  |  | 0.58 | -0.23 |  | -0.76 | 0.78 | 0.67 | 0.64 | 0.78 | Growth Rate (Fibroblast; 0 h, replicate number 1): -0.1; Growth Rate (HEK-293T; 0 h, replicate number 1): -0.36; Growth Rate (U2OS; 12 h, replicate number 2): 0.57 |
| COc1cc(Cl)c(C(=O)N[C@@H](CN[C@H]2CC[C@@H](N)CC2)Cc2ccc(C#N)cc2)cc1-c1ccc(CN[C@H](C)c2ccc(C)cc2)o1 | -0.93 | -0.83 | -0.82 | -0.76 | -0.74 | -0.72 | -0.68 | -1 | -0.61 | -0.48 | -0.42 | -0.4 | -1 | -0.99 | -0.95 | -0.87 | -0.77 | -0.78 | -0.74 | -0.76 | Growth Rate (Fibroblast; 12 h, replicate number 1): -0.8; Growth Rate (HEK-293T; 6 h, replicate number 1): -0.6; Growth Rate (HEK-293T; 12 h, replicate number 1): -0.61; Growth Rate (HEK-293T; 12 h, replicate number 2): -0.53; Growth Rate (U2OS; 6 h, replicate number 2): -0.91; Growth Rate (U2OS; 12 h, replicate number 2): -0.86 |
| c1ccc2c(-c3coc4cc(-c5ccc(N6CCNCC6)cc5)cnc34)ccnc2c1 |  |  | 0.61 | 0.29 | 0.28 | 0.1 | 0.11 | -1 | -0.5 | -0.42 | -0.3 | -0.33 |  | 0.9 |  | 0.59 | 0.14 | -0.38 | -0.05 | -0.46 | Growth Rate (Fibroblast; 0 h, replicate number 1): 0.87; Growth Rate (Fibroblast; 12 h, replicate number 1): 0.93; Growth Rate (HEK-293T; 6 h, replicate number 1): -0.57; Growth Rate (HEK-293T; 12 h, replicate number 1): -0.52; Growth Rate (HEK-293T; 12 h, replicate number 2): -0.56; Growth Rate (HEK-293T; 18 h, replicate number 2): -0.43; Growth Rate (U2OS; 6 h, replicate number 2): 0; Growth Rate (U2OS; 12 h, replicate number 2): -0.36 |
| O=C1COc2cc(C(=O)N(Cc3ccc(C(=O)Nc4ccncn4)cc3)C3CC3)ccc2N1 | 0.36 | 0.55 | 0.88 | 0.54 | 0.79 | 0.74 | 0.98 | -0.63 | 0.01 | 0.75 | 0.95 | 0.72 | -0.53 | 0.72 | 0.39 | 0.37 | 0.61 | 0.77 | 0.73 | 0.87 | Growth Rate (Fibroblast; 12 h, replicate number 1): 0.28; Growth Rate (HEK-293T; 6 h, replicate number 1): 0.38; Growth Rate (HEK-293T; 12 h, replicate number 1): 0.74; Growth Rate (HEK-293T; 12 h, replicate number 2): 0.42; Growth Rate (HEK-293T; 18 h, replicate number 2): 0.66; Growth Rate (U2OS; 6 h, replicate number 2): 0.77; Growth Rate (U2OS; 12 h, replicate number 2): 0.8 |
| CC1(C)C(=O)N([C@H]2CCc3c(O)cccc32)c2nc(Nc3cccc(CN4CCCC4)c3)ncc21 | -0.49 | -0.63 | -0.57 | -0.44 | -0.52 | -0.42 | -0.52 | -1 | -0.56 | -0.36 | -0.28 | -0.32 | -0.88 | 0.2 | 0.38 | 0.05 | -0.08 | -0.3 | -0.27 | -0.38 | Growth Rate (Fibroblast; 12 h, replicate number 1): -0.4; Growth Rate (HEK-293T; 6 h, replicate number 1): -0.69; Growth Rate (HEK-293T; 12 h, replicate number 1): -0.53; Growth Rate (HEK-293T; 12 h, replicate number 2): -0.41; Growth Rate (HEK-293T; 18 h, replicate number 2): -0.35; Growth Rate (U2OS; 6 h, replicate number 2): -0.15; Growth Rate (U2OS; 12 h, replicate number 2): -0.3 |
| COC(=O)c1sccc1S(=O)(=O)Nc1ccc(Nc2ccccc2)cc1OC |  | 0.48 | 0.47 |  | 0.95 |  | 0.74 | -0.92 | 0.93 |  |  |  | -0.11 |  | 0.61 | 0.91 | 0.81 | 0.9 |  | 0.82 | Growth Rate (Fibroblast; 0 h, replicate number 2): 0.71; Growth Rate (HEK-293T; 12 h, replicate number 2): 0.77; Growth Rate (U2OS; 6 h, replicate number 2): 0.91 |
